PubChem BioAssay AID1963870 (Molecular Pharmacology Branch, DTP, NCI, 2024)

Tested on: 292921-168-R-J2-PDC KRAS tumor spheroid viability
Experiment: Anticancer human tumor 292921-168-R-J2-PDC patient-derived pancreatic carcinoma cell line growth inhibition [KRAS2]
Settings: spheroids with HUVEC and MSC; for viability, T/C: stronger effect = lower value; active = viability on the fitted dose curve at most 10% of control; inactive = the rest
Text: Multicellular complex tumor spheroid response to RAS pathway inhibitors in combination with a targeted agents in patient-derived cell lines with oncogenic KRAS variants from multiple cancer types
A high-throughput screen of multi-cell type tumor spheroids was designed to identify active combinations of targeted small molecules and KRAS pathway inhibitors. Complex spheroids include a stromal component modeled by human endothelial cells (HUVEC) and fibroblasts modeled by human mesenchymal stem cells (MSCs). The concentration ranges selected for each drug and investigational agent were based upon clinically achievable concentrations if the clinical Cmax of the agent was known.
Compounds. The drugs and investigational agents: BI-3406 (NSC825286), BAY-293 (NSC824723), batoprotafib (TNO155; NSC825523), sotorasib (AMG 510; NSC818433), MRTX1257 (NSC819558), elimusertib (BAY 1895344; NSC800525), molibresib (GSK525762; NSC774829), temuterkib (LY3214996; NSC803410), venetoclax (NSC766270), alisertib (NSC759677), olaparib (NSC753686), talazoparib (NSC767125), erdafitinib (NSC781556), ipatasertib (NSC767898), cabozantinib (NSC761068), nintedanib (NSC756659), abemaciclib (NSC768073), docetaxel (NSC628503), trametinib (NSC758246), and sapanisertib (NSC764658) were obtained from the National Cancer Institute (NCI) Developmental Therapeutics Program Chemical Repository. The FDA-approved anticancer drug set is available from the Developmental Therapeutics Program. […] The stock solutions were prepared in dimethyl sulfoxide (DMSO, Sigma-Aldrich, St. Louis, MO, cat. D2650) at 800-fold the tested concentration and stored at -70 degrees C prior to their use. All drugs and investigational agents were tested over a range starting from a high concentration at or near the clinical Cmax and decreasing in half-log increments. If the clinical Cmax for an agent had not been determined, the highest concentration tested was 10 microM.
Cell Culture. All cells were maintained in an incubator at 37 degrees C and 5% CO2 with 95% humidity. The PDC lines were cultured according to standard operating procedures established by the NCI PDMR (https://pdmr.cancer.gov/sops/default.htm). Briefly, all PDCs were thawed and cultured in Matrigel-coated flasks prepared with a working solution of 1X Ham's F-12 nutrient mix, without supplementation (Invitrogen, Waltham, MA, cat. 11765054), 100 U/mL penicillin-streptomycin (Invitrogen, cat. 15140122), and 2.5% Matrigel (Corning Inc., Corning, NY, cat. 354248) for the first three passages. All PDCs were cultured in complete DMEM/F-12 media containing advanced DMEM/F-12 (Invitrogen, cat. 12634028), 4.9% defined fetal bovine serum, heat inactivated (HyClone Laboratories Inc., Logan, UT, cat. SH30070.03HI), 389 ng/mL hydrocortisone (Sigma-Aldrich, cat. H4001), 9.7 ng/mL human EGF recombinant protein (Invitrogen, cat. PHG0313), 23.4 microg/mL adenine (Sigma-Aldrich, cat. A2786), 97.3 U/mL penicillin-streptomycin (Invitrogen, cat. 15140122), 1.9 mM L-glutamine (Invitrogen, cat. 25030081), and 9.7 microM Y-27632 dihydrochloride (Tocris Bioscience, Bristol, United Kingdom, cat. 1254). The PDCs were cultured in complete DMEM/F12 media without 9.7 microM Y-27632 dihydrochloride for at least two passages prior to the screen. The established cell line HOP-62 was cultured in RPMI 1640 medium, HEPES (Invitrogen, cat. 22400105) with 10% defined fetal bovine serum (HyClone Laboratories Inc., cat. SH30070.03) and 2 mM L-glutamine (Invitrogen, cat. 25030081). The pooled donor HUVEC were cultured in endothelial cell growth medium 2 (PromoCell, Heidelberg, Germany, cat. C-22011) and the hMSC were cultured in mesenchymal stem cell growth medium 2 (PromoCell, cat. C-28009). For all experiments, HUVEC and hMSC were used at passages </=5, while the malignant cell lines were used at passages </=15. […]

[1] = compound alone, run of 09/02/2021
[2] = curve of first compound, second compound 0.1 µM
[3] = curve of first compound, second compound 0.316 µM
[4] = curve of first compound, second compound 1 µM
[5] = curve of first compound, second compound 3.16 µM
[6] = curve of first compound, second compound 10 µM
[7] = second compound 0.1 µM, first compound 0.01 µM
[8] = second compound 0.1 µM, first compound 0.0316 µM
[9] = second compound 0.1 µM, first compound 0.1 µM
[10] = second compound 0.316 µM, first compound 0.01 µM
[11] = second compound 0.316 µM, first compound 0.0316 µM
[12] = second compound 0.316 µM, first compound 0.1 µM
[13] = second compound 1 µM, first compound 0.01 µM
[14] = second compound 1 µM, first compound 0.0316 µM
[15] = second compound 1 µM, first compound 0.1 µM
[16] = second compound 3.16 µM, first compound 0.01 µM
[17] = second compound 3.16 µM, first compound 0.0316 µM
[18] = second compound 3.16 µM, first compound 0.1 µM
[19] = second compound 10 µM, first compound 0.01 µM
[20] = second compound 10 µM, first compound 0.0316 µM
[21] = second compound 10 µM, first compound 0.1 µM
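Also: drug exposure lasted seven days after spheroids formed for three days.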
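For viability, T/C in this document: percent of DMSO vehicle control viability which is 100%.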

C=CC(=O)N1CCN(c2nc(OCC3CCCN3C)nc3c2CCN(c2cccc4cccc(C)c24)C3)CC1CC#N (stereo not drawn)
647 nM [middle of 5 runs]: IC50 [1]
821 nM [middle of 5 runs]: IC50 (compound alone, run of 08/26/2021)

COc1cc2nc(C)nc(NC(C)c3cc(N)cc(C(F)(F)F)c3)c2cc1OC1CCOC1 (stereo not drawn)
4.36 µM [middle of 5 runs]: IC50 [1]

CC(=O)OC12COC1CC(O)C1(C)C(=O)C(O)C3=C(C)C(OC(=O)C(O)C(NC(=O)OC(C)(C)C)c4ccccc4)CC(O)(C(OC(=O)c4ccccc4)C21)C3(C)C (stereo not drawn) + C=CC(=O)N1CCN(c2nc(=O)n(-c3c(C)ccnc3C(C)C)c3nc(-c4c(O)cccc4F)c(F)cc23)C(C)C1
inactive: viability, T/C [7] 14.6% | viability, T/C [8] 15.4% | viability, T/C [9] 14.2% | viability, T/C (second compound 0.1 µM, first compound 0.316 µM) 12.3% | viability, T/C (second compound 0.1 µM, first compound 1 µM) 14.5% | viability, T/C (second compound 0.1 µM, first compound 3.16 µM) 17.3% | viability, T/C [10] 12.9% | viability, T/C [11] 17.1% | viability, T/C [12] 13% | viability, T/C (second compound 0.316 µM, first compound 0.316 µM) 13.1% | viability, T/C (second compound 0.316 µM, first compound 1 µM) 13.7% | viability, T/C (second compound 0.316 µM, first compound 3.16 µM) 18.3% | viability, T/C [13] 17.1% | viability, T/C [14] 17.5% | viability, T/C [15] 14.9% | viability, T/C (second compound 1 µM, first compound 0.316 µM) 12.9% | viability, T/C (second compound 1 µM, first compound 1 µM) 14.4% | viability, T/C (second compound 1 µM, first compound 3.16 µM) 19.1% | viability, T/C [16] 18.1% | viability, T/C [17] 18.2% | viability, T/C [18] 16.9% | viability, T/C (second compound 3.16 µM, first compound 0.316 µM) 15.7% | viability, T/C (second compound 3.16 µM, first compound 1 µM) 16.1% | viability, T/C (second compound 3.16 µM, first compound 3.16 µM) 17.9% | viability, T/C [19] 20.5% | viability, T/C [20] 18.4% | viability, T/C [21] 16.6% | viability, T/C (second compound 10 µM, first compound 0.316 µM) 15.3% | viability, T/C (second compound 10 µM, first compound 1 µM) 15.7% | viability, T/C (second compound 10 µM, first compound 3.16 µM) 17.2%
< 10 nM: IC50 [2] | IC50 [3] | IC50 [4] | IC50 [5] | IC50 [6]

CN(C)C/C=C/C(=O)Nc1cc2c(Nc3ccc(F)c(Cl)c3)ncnc2cc1O[C@H]1CCOC1 + C=CC(=O)N1CCN(c2nc(=O)n(-c3c(C)ccnc3C(C)C)c3nc(-c4c(O)cccc4F)c(F)cc23)C(C)C1
inactive: viability, T/C (second compound 0.1 µM, first compound 0.000316 µM) 119% | viability, T/C (second compound 0.1 µM, first compound 0.001 µM) 110% | viability, T/C (second compound 0.1 µM, first compound 0.00316 µM) 94% | viability, T/C [7] 86.2% | viability, T/C [8] 95.3% | viability, T/C [9] 76.5% | viability, T/C (second compound 0.316 µM, first compound 0.000316 µM) 118% | viability, T/C (second compound 0.316 µM, first compound 0.001 µM) 114% | viability, T/C (second compound 0.316 µM, first compound 0.00316 µM) 104% | viability, T/C [10] 104% | viability, T/C [11] 96.4% | viability, T/C [12] 89.4% | viability, T/C (second compound 1 µM, first compound 0.000316 µM) 117% | viability, T/C (second compound 1 µM, first compound 0.001 µM) 107% | viability, T/C (second compound 1 µM, first compound 0.00316 µM) 106% | viability, T/C [13] 90.7% | viability, T/C [14] 101% | viability, T/C [15] 87.2% | viability, T/C (second compound 3.16 µM, first compound 0.000316 µM) 71.7% | viability, T/C (second compound 3.16 µM, first compound 0.001 µM) 67% | viability, T/C (second compound 3.16 µM, first compound 0.00316 µM) 66.6% | viability, T/C [16] 71.9% | viability, T/C [17] 68.4% | viability, T/C [18] 53.5% | viability, T/C (second compound 10 µM, first compound 0.000316 µM) 29.3% | viability, T/C (second compound 10 µM, first compound 0.001 µM) 24.5% | viability, T/C (second compound 10 µM, first compound 0.00316 µM) 22.8% | viability, T/C [19] 23% | viability, T/C [20] 20.9% | viability, T/C [21] 19.2%
< 0.316 nM: IC50 [6]
> 100 nM: IC50 [2] | IC50 [3] | IC50 [4] | IC50 [5]
